Measured values as given in US20260078120A1, “SUBSTITUTED PYRIDOPYRIMIDINONES” (MIRATI THERAPEUTICS, INC., priority 2022, published 2026).

Key:
Assay type in all cases: cell-based
[1] = tested on: MKN1 (PI3Kα E545K mutant) cells; assay: CellTiter-Glo 2.0 luminescent cell viability assay, 72 hours, MKN1 cells; details: Homo sapiens
Procedure: This Example illustrates that exemplary compounds of the present invention decrease the viability of cells.
The ability of a compound of Formula (I) to decrease the viability of cells was measured using CellTiter-Glo 2.0 (CTG) Luminescent Cell Viability Assay (#G9241) obtained from Promega (Madison, WI).
To prepare assay plates for viability assays, cells were trypsinized, resuspended in fresh media, and viable cells were counted utilizing trypan blue exclusion. T47D, SKBR3, or MKN1 cells were seeded at 1000 cells in 30 μl per well in a solid white flat bottom 384 cell culture plate (Perkin Elmer #6007680) and incubated at 37° C. overnight.
Assay day 1, cells were dosed using an Echo Liquid Handler (Beckman Coulter) with compounds at a 10 um starting concentration and serially diluted (1:4) for a total of 10 concentrations. Cells were incubated for approximately 72 hours with the compounds (solubilized in DMSO) at 37° C. After 72 hours of treatment, cell plates were equilibrated to room temperature before adding 15 μl of CTG to each well, plates were then covered in aluminum foil to protect from light, incubated at room temperature for 30 minutes on a microtiter plate shaker, and luminescence readings were collected using a CLARIOstar microplate reader (BMG Labtech, Germany). Percent of vehicle control values were plotted as log (inhibitor) vs. response-Variable slope (four parameters) for curve fitting and IC50 values were determined using XLfit.

[2] = tested on: T47D (PI3Kα H1047R mutant) cells; assay: CellTiter-Glo 2.0 luminescent cell viability assay, 72 hours, T47D cells; details: Homo sapiens, T47D, 72 h
Summary of the method: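 Viability was measured by CellTiter-Glo 2.0 luminescence after approximately 72 h of compound exposure at 37° C. Plating was 1000 cells per well the day before dosing, with ten 1:4 dilutions from a 10 µM top concentration. Values as percent of vehicle were fitted by variable-slope log(inhibitor) regression to give IC50.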

[3] = tested on: SKBR3 (PI3Kα wild type) cells; assay: Inhibition of pAKT formation, alphaLISA SureFire Ultra AKT 1/2/3 (pS473), SKBR3 cells; details: Homo sapiens, SK-BR-3; Inhibition of pAKT in SKBR3 (PI3Kα wild type) cells; read-out: SKBR3 (WT) pAKT IC50 (nM) (H1047R mutant) IC50
Summary of the method: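 Cells seeded in HBSS (SKBR3 12,000/well, MKN1 24,000/well) and dosed immediately, 10-point 1:4 series from […], for about 1 h or 24 h at 37 °C. pAKT S473 by alphaLISA after lysis; signal normalised to alpelisib and DMSO controls, IC50 by four-parameter fit.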

[4] = tested on: T47D (PI3Kα H1047R mutant) cells; assay: Inhibition of pAKT formation, alphaLISA SureFire Ultra AKT 1/2/3 (pS473), T47D cells; details: Homo sapiens, T47D
Summary of the method: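 AKT Ser473 phosphorylation was quantified by alphaLISA SureFire Ultra after roughly 1 h or 24 h compound exposure at 37 °C. Cells were T47D (12,000/well in HBSS), treated with a 10-point 1:4 series starting at 10.4 μM. Percent of control used alpelisib background and DMSO reference, and IC50 came from four-parameter logistic fitting.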

[5] = tested on: SKBR3 (PI3Kα wild type) cells; assay: CellTiter-Glo 2.0 luminescent cell viability assay, 72 hours, SKBR3 cells; details: Homo sapiens, SK-BR-3, 72 h
Summary of the method: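 Viability measured via CTG luminescence following roughly 72 hours of compound exposure at 37° C. Dosing used a 10 um starting concentration diluted 1:4 over 10 points; percent-of-vehicle data fitted with a variable-slope four-parameter model for IC50.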

[6] = tested on: MKN1 (PI3Kα E545K mutant) cells; assay: Inhibition of pAKT formation, alphaLISA SureFire Ultra AKT 1/2/3 (pS473), MKN1 cells; details: Homo sapiens
Procedure: The ability of a compound of Formula (I) to inhibit the formation of pAKT was measured using alphaLISA Surefire Ultra AKT 1/2/3 (pS473) Assay Kit (#ALSU-PAKT-B50K) was obtained from Perkin Elmer (Waltham, MA).
To prepare assay plates for pAKT alphaLISA assays, cells were trypsinized, resuspended in fresh media, and viable cells were counted utilizing trypan blue exclusion. Prior to seeding, cells were washed with PBS and resuspended in HBSS (Gibco, #14025092). T47D (12,000/w), SKBR3(12,000/w), or MKN1(24,000/w) cells were seeded at 12 μl per well in a solid white flat bottom 384 cell culture plate (Perkin Elmer #6007680).
Immediately after seeding, cells were dosed using an Echo Liquid Handler (Beckman Coulter) with compounds at a […] starting concentration and serially diluted (1:4) for a total of 10 concentrations. […] Cells were incubated with the compounds (solubilized in DMSO) for approximately one hour or 24 hours at 37° C. After one hour (or 24 hours) of treatment, cells were lysed with 3 μl of the 5× lysis buffer (provided and incubated at room temperature for 15 min on a microtiter plate shaker). Once cells were sufficiently lysed, 7.5 μl of the acceptor bead mix (made using the manufacturers recommended dilutions) was added to each well and left on the microtiter plate shaker for 1 min prior to incubating plates at room temperature for one hour, in the absence of light. After one hour of incubation with the acceptor bead mix, 7.5 μl of the donor bead mix (made using the manufacturers recommended dilutions) was added to each well and left on the microtiter plate shaker for 1 min prior to incubating plates at room temperature overnight in the absence of light. Plates were then imaged the following day using a CLARIOstar microplate reader (BMG Labtech, Germany).
Percent of control values were calculated by subtracting the average signal from the positive control (alpelisib) treated wells from all treated wells (including DMSO control wells) and then divided by the average signal from the vehicle DMSO treated control wells. Percent of vehicle control values were plotted as log (inhibitor) vs. response-Variable slope (four parameters) for curve fitting and IC50 values were determined using XLfit.
Key: N.D. =not determined

[7] = MKN-1, MKN1 (PI3Kα E545K mutant) cells, CellTiter-Glo, approximately 72 hours, read-out: MKN1 (E545K) Viability IC50
[8] = T47D (PI3Kα H1047R mutant) cells, CellTiter-Glo, approximately 72 hours, read-out: T47D (H1047R mutant) Viability IC50
[9] = T47D (PI3Kα H1047R mutant) cells, inhibition of pAKT (pS473) formation, approximately one hour or 24 hours treatment, read-out: T47D pAKT (H1047R mutant) IC50
[10] = SKBR3 (PI3Kα wild type) cells, CellTiter-Glo, approximately 72 hours, read-out: SKBR3 (WT) Viability IC50
[11] = MKN-1, MKN1 (PI3Kα E545K mutant) cells, inhibition of pAKT (pS473) formation, approximately one hour or 24 hours treatment, read-out: MKN1 (E545K) pAKT IC50

Row | SMILES | IC50 [1, 7] [nM] | IC50 [2, 8] [nM] | IC50 [3] [nM] | IC50 [4, 9] [nM] | IC50 [5, 10] [nM] | IC50 [6, 11] [nM] | IC50 ([1]; MKN-1, 72 h, read-out: MKN1 (E545K) Viability IC50 (nM)) [nM] | IC50 ([2]; read-out: T47D (H1047R mutant) Viability IC50 (nM)) [nM] | IC50 ([4]; read-out: T47D pAKT (H1047R mutant) IC50 (nM)) [nM] | IC50 ([5]; read-out: SKBR3 (WT) Viability IC50 (nM)) [nM] | IC50 ([6]; MKN-1, read-out: MKN1 (E545K) pAKT IC50 (nM)) [nM]
1 | Cc1cc(C(C)Nc2ccccc2C(=O)O)c2nc(-c3ccccc3)cc(=O)n2c1 (stereo not drawn) [Example 7-1, 2-((1-(7-methyl-4-oxo-2-phenyl-4H-pyrido[1,2-a]pyrimidin-9-yl)ethyl)amino)benzoic acid] |  |  | 6650 |  |  |  | > 10000 | 3140 | 13.3 | > 10000 | 6420
2 | Cc1cc(C(C)Nc2ccc(Cl)nc2C(=O)O)c2nc(N3CCCCC3)cc(=O)n2c1 (stereo not drawn) [Example 3-19, 6-chloro-3-((1-(7-methyl-4-oxo-2-(piperidin-1-yl)-4H-pyrido[1,2-a]pyrimidin-9-yl)ethyl)amino)picolinic acid] | > 10000 | 368 | 2800 | 38.3 | > 10000 | 1190 |  |  |  |  | 
3 | Cc1cc(C(C)NC(=O)CCl)c2nc(N3CCCCC3)cc(=O)n2c1 (stereo not drawn) [Example 4-3, 2-chloro-N-(1-(7-methyl-4-oxo-2-(piperidin-1-yl)-4H-pyrido[1,2-a]pyrimidin-9-yl)ethyl)acetamide] | 6140 | > 10000 | > 10000 | > 10000 | 4840 | > 10000 |  |  |  |  | 
4 | CC(Nc1ccccc1C(=O)O)c1cccn2c(=O)cc(N3Cc4ccccc4C3)nc12 (stereo not drawn) [9-4, 2-((1-(2-(isoindolin-2-yl)-4-oxo-4H-pyrido[1,2-a]pyrimidin-9-yl)ethyl)amino)benzoic acid] | > 10000 | 9970 | > 10000 | 25.9 | > 10000 | > 10000 |  |  |  |  | 
5 | Cc1c(N2CCC(C)(C)CC2)nc2c(C(C)Nc3ccccc3C(=O)O)cccn2c1=O (stereo not drawn) [Example 5-10, 2-((1-(2-(4,4-dimethylpiperidin-1-yl)-3-methyl-4-oxo-4H-pyrido[1,2-a]pyrimidin-9-yl)ethyl)amino)benzoic acid] | > 10000 | 1800 | 6120 | 40.4 | > 10000 | > 10000 |  |  |  |  | 
6 | Cc1cc(C(C)Oc2ccccc2C(=O)O)c2nc(N3CCCCC3)cc(=O)n2c1 (stereo not drawn) [Example 3-9, 2-(1-(7-methyl-4-oxo-2-(piperidin-1-yl)-4H-pyrido[1,2-a]pyrimidin-9-yl)ethoxy)benzoic acid] | > 10000 | > 10000 | 583 | > 10000 | > 10000 | > 10000 |  |  |  |  | 
7 | Cc1cc(C(C)Nc2ccccc2C(=O)O)c2nc(N3Cc4ccccc4C3)c(C)c(=O)n2c1 (stereo not drawn) [Example 5-9, 2-((1-(2-(isoindolin-2-yl)-3,7-dimethyl-4-oxo-4H-pyrido[1,2-a]pyrimidin-9-yl)ethyl)amino)benzoic acid] | > 10000 | 430 | 683 | 21 | > 10000 | 3500 |  |  |  |  | 
8 | Cc1cc(C(C)Nc2cccc3cn[nH]c23)c2nc(N3CCCCC3)cc(=O)n2c1 (stereo not drawn) [Example 3-17, 9-(1-((1H-indazol-7-yl)amino)ethyl)-7-methyl-2-(piperidin-1-yl)-4H-pyrido[1,2-a]pyrimidin-4-one] | > 10000 | > 10000 | > 10000 | > 10000 | 9770 | > 10000 |  |  |  |  | 

The next lines start with results.

Row | IC50 [1, 7] [nM] | IC50 [2, 8] [nM] | IC50 [3] [nM] | IC50 [4, 9] [nM] | IC50 [5, 10] [nM] | IC50 [6, 11] [nM] | SMILES | IC50 ([1]; MKN-1, 72 h, read-out: MKN1 (E545K) Viability IC50 (nM)) [nM] | IC50 ([2]; read-out: T47D (H1047R mutant) Viability IC50 (nM)) [nM] | IC50 ([4]; read-out: T47D pAKT (H1047R mutant) IC50 (nM)) [nM] | IC50 ([5]; read-out: SKBR3 (WT) Viability IC50 (nM)) [nM] | IC50 ([6]; MKN-1, read-out: MKN1 (E545K) pAKT IC50 (nM)) [nM]
9 | > 10000 | > 10000 | > 10000 | > 10000 | > 10000 | > 10000 | Cc1cc(C(C)Nc2ccccc2C#N)c2nc(N3CCCCC3)cc(=O)n2c1 (stereo not drawn) [Example 3-11, 2-((1-(7-methyl-4-oxo-2-(piperidin-1-yl)-4H-pyrido[1,2-a]pyrimidin-9-yl)ethyl)amino)benzonitrile] |  |  |  |  | 
10 | > 10000 | 1360 | > 10000 | 4540 | > 10000 | 2910 | CNC(=O)c1ccccc1NC(C)c1cc(C)cn2c(=O)cc(N3CCCCC3)nc12 (stereo not drawn) [Example 3-14, N-methyl-2-((1-(7-methyl-4-oxo-2-(piperidin-1-yl)-4H-pyrido[1,2-a]pyrimidin-9-yl)ethyl)amino)benzamide] |  |  |  |  | 
11 | 9680 | 166 | 932 | 54 | > 10000 | 5540 | Cc1cc(C(C)Nc2ccccc2C(=O)O)c2nc(N3CCCCC3)c(C#N)c(=O)n2c1 (stereo not drawn) [Example 8-1, 2-((1-(3-cyano-7-methyl-4-oxo-2-(piperidin-1-yl)-4H-pyrido[1,2-a]pyrimidin-9-yl)ethyl)amino)benzoic acid] |  |  |  |  | 
12 | > 10000 | > 10000 | > 10000 | 1910 | > 10000 | 755 | Cc1cc([C@H](C)Nc2ccccc2C(=O)O)c2nc(N3CCCCC3)cc(=O)n2c1 (single isomer, unassigned) [Example 3-2] |  |  |  |  | 
13 | > 10000 | > 10000 | > 10000 | 2740 | > 10000 | > 10000 | COc1cccc(NC(C)c2cc(C)cn3c(=O)cc(N4CCCCC4)nc23)c1C(=O)O (stereo not drawn) [Example 3-3, 2-methoxy-6-((1-(7-methyl-4-oxo-2-(piperidin-1-yl)-4H-pyrido[1,2-a]pyrimidin-9-yl)ethyl)amino)benzoic acid] |  |  |  |  | 
14 | > 10000 | > 10000 | > 10000 | 1060 | > 10000 | 3990 | Cc1cc(C(C)Nc2ccccc2C(N)=O)c2nc(N3CCCCC3)cc(=O)n2c1 (stereo not drawn) [Example 3-13, 2-((1-(7-methyl-4-oxo-2-(piperidin-1-yl)-4H-pyrido[1,2-a]pyrimidin-9-yl)ethyl)amino)benzamide] |  |  |  |  | 
